Results: patent publication US7138361B2, “Herbicidal heterocycles” (E. I. du Pont de Nemours and Company, priority 2000, dated 2006)

Tests used:
Format in all cases: in vivo
[1] = test system: Surinam grass (Brachiaria decumbens); assay: Test C postemergence
How it was run: (§1)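 Herbicidal effect is a visual 0–100 score (100 = complete control) assigned versus untreated plants, 12 to 14 days after spraying in the greenhouse. Test compounds were applied in a non-phytotoxic, surfactant-containing solvent.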

[2] = test system: bermudagrass (Cynodon dactylon); assay: Test C postemergence
How it was run: as §1

[3] = test system: chickweed (Stellaria media); assay: Test C postemergence
How it was run: as §1

corn (Zea mays) = assay: Test C postemergence
How it was run: as §1

[4] = test system: giant foxtail (Setaria faberii); assay: Test C postemergence
How it was run: as §1

[5] = test system: goosegrass (Eleusine indica); assay: Test C postemergence
How it was run: as §1

[6] = test system: lambsquarters (Chenopodium album); assay: Test C postemergence
How it was run: as §1

[7] = test system: morningglory (Ipomoea hederacea); assay: Test C postemergence
How it was run: as §1

[8] = test system: velvetleaf (Abutilon theophrasti); assay: Test C postemergence
How it was run: as §1

[9] = test system: yellow nutsedge (Cyperus esculentus); assay: Test C postemergence
How it was run: as §1

rice (Oryza saliva) [10] = assay: Test C flooded paddy test; conditions: for Rice plant response rating: Flooded Paddy, scale 0 to 100, 0 no effect, 100 complete control; for Plant response rating, Rice / Plant response rating (scale 0 to 100), Rice: flooded paddy test; for Plant response rating, Rice: scale 0 to 100 (0 no effect, 100 complete control)
How it was run: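 Visual ratings (0 = no effect, 100 = complete control) were made 12–14 days after treatment, relative to greenhouse controls. Plants in the flooded paddy test were rice, smallflower flatsedge, duck salad and barnyardgrass, treated at the 2-leaf stage.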

Sunflower [11] = assay: Test C preemergence; conditions: visual evaluation after 12 to 14 days
Sunflower [12] = assay: Test C preemergence; conditions: Rate 62 g/ha, scale 0 to 100
[13] = test system: barnyardgrass (Echinochloa crus-galli); assay: Test B flooded paddy test; conditions: Rate 1000 g/ha, scale of 0 to 100 where 0 is no effect and 100 is complete control, visually evaluated after 13 to 15 days
How it was run: (§2)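 Plants were grown to the 2-leaf stage in flooded paddy conditions before treatment with the formulated test chemicals. After 13 to 15 days in a greenhouse, each species was visually compared with untreated controls and rated from 0 (no effect) to 100 (complete control).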

[14] = test system: duck salad (Heteranthera limosa); assay: Test B flooded paddy test; conditions: Rate 1000 g/ha, scale of 0 to 100 where 0 is no effect and 100 is complete control, visually evaluated after 13 to 15 days
How it was run: as §2

rice (Oryza saliva) [15] = assay: Test B flooded paddy test; conditions: Rate 1000 g/ha, scale of 0 to 100 where 0 is no effect and 100 is complete control, visually evaluated after 13 to 15 days
How it was run: as §2

[16] = test system: smallflower flatsedge (Cyperus difformis); assay: Test B flooded paddy test; conditions: Rate 1000 g/ha, scale of 0 to 100 where 0 is no effect and 100 is complete control, visually evaluated after 13 to 15 days
How it was run: as §2

[17] = Rate 125 g/ha, scale 0 to 100, 0 no effect, 100 complete control
[18] = Rate 250 g/ha, scale 0 to 100 (0 no effect, 100 complete control)
[19] = Rate 500 g/ha, scale 0 to 100 (0 no effect, 100 complete control)
[20] = Rate 16 g/ha, visually evaluated after 12 to 14 days, 0 = no effect, 100 = complete control
[21] = under head Rate 16 g/ha, (own rate not given), after 12 to 14 days

## CCCC(C)c1ccn(C2OCN(c3cccc(OC(F)(F)F)c3)C2=O)n1 (stereo not shown) [Compound 91]
[1]; Rate 62 g/ha, scale 0 to 100
  Plant response rating, Surinam grass: 20
[1]; [17]
  Plant response rating, Surinam grass: 20
[1]; [18]
  Plant response rating, Surinam grass: 30
[1]; [19]
  Plant response rating, Surinam grass: 30
[2]; Rate 62 g/ha, scale 0 to 100
  Plant response rating, Bermudagrass: 20
[2]; [17]
  Plant response rating, Bermudagrass: 20
[2]; [18]
  Plant response rating, Bermudagrass: 40
[2]; [19]
  Plant response rating, Bermudagrass: 60
[3]; Rate 62 g/ha, scale 0 to 100
  Plant response rating, Chickweed: 70
[3]; [17]
  Plant response rating, Chickweed: 80
[3]; [18]
  Plant response rating, Chickweed: 80
[3]; [19]
  Plant response rating, Chickweed: 90
Corn (Zea mays); Rate 62 g/ha, scale 0 to 100
  Plant response rating, Corn: 0
Corn (Zea mays); [17]
  Plant response rating, Corn: 0
Corn (Zea mays); [18]
  Plant response rating, Corn: 0
Corn (Zea mays); [19]
  Plant response rating, Corn: 0
[4]; Rate 62 g/ha, scale 0 to 100
  Plant response rating, Foxtail, Giant: 20
[4]; [17]
  Plant response rating, Foxtail, Giant: 20
[4]; [18]
  Plant response rating, Foxtail, Giant: 40
[4]; [19]
  Plant response rating, Foxtail, Giant: 40
[5]; Rate 62 g/ha, scale 0 to 100
  Plant response rating, Goosegrass: 20
[5]; [17]
  Plant response rating, Goosegrass: 20
[5]; [18]
  Plant response rating, Goosegrass: 30
[5]; [19]
  Plant response rating, Goosegrass: 40
[6]; Rate 62 g/ha, scale 0 to 100
  Plant response rating, Lambsquarters: 100
[6]; [17]
  Plant response rating, Lambsquarters: 100
[6]; [18]
  Plant response rating, Lambsquarters: 100
[6]; [19]
  Plant response rating, Lambsquarters: 100
[7]; Rate 62 g/ha, scale 0 to 100
  Plant response rating, Morningglory: 0
[7]; [17]
  Plant response rating, Morningglory: 0
[7]; [18]
  Plant response rating, Morningglory: 60
[7]; [19]
  Plant response rating, Morningglory: 90
[8]; Rate 62 g/ha, scale 0 to 100
  Plant response rating, Velvetleaf: 0
[8]; [17]
  Plant response rating, Velvetleaf: 0
[8]; [18]
  Plant response rating, Velvetleaf: 0
[8]; [19]
  Plant response rating, Velvetleaf: 0
[9]; Rate 62 g/ha, scale 0 to 100
  Plant response rating, Nutsedge: 0
[9]; [17]
  Plant response rating, Nutsedge: 0
[9]; [18]
  Plant response rating, Nutsedge: 0
[9]; [19]
  Plant response rating, Nutsedge: 20
Rice (Oryza saliva) [10]; Rate 250 g/ha
  Rice plant response rating: 20
Rice (Oryza saliva) [10]; Rate 500 g/ha
  Rice plant response rating: 40
Rice (Oryza saliva) [10]; Rate 62 g/ha
  Plant response rating, Rice: 0
Rice (Oryza saliva) [10]; Rate 125 g/ha
  Plant response rating, Rice: 20
Rice (Oryza saliva) [10]; [20]
  Plant response rating (scale 0 to 100), Rice: 0
Rice (Oryza saliva) [10]; [21]
  Plant response rating (scale 0 to 100), Rice: 0
Sunflower [11]; Rate 500 g/ha
  Plant response rating (0 to 100), Sunflower: 10
Sunflower [12]
  Plant response rating, Sunflower: 0

## CC(C)c1ccn(C2SCN(c3cccc(OC(F)(F)F)c3)C2=O)n1 (stereo not shown) [Compound 31]
[13]
  Plant response rating, Barnyardgrass: 100
[14]
  Plant response rating, Ducksalad: 100
Rice (Oryza saliva) [15]
  Plant response rating, Rice: 90
[16]
  Plant response rating, Flatsedge: 100
Rice (Oryza saliva) [10]; Rate 250 g/ha
  Rice plant response rating: 90
Rice (Oryza saliva) [10]; Rate 500 g/ha
  Rice plant response rating: 90
Rice (Oryza saliva) [10]; Rate 62 g/ha
  Plant response rating, Rice: 30
Rice (Oryza saliva) [10]; Rate 125 g/ha
  Plant response rating, Rice: 60
Sunflower [11]; Rate 250 g/ha
  Plant response rating (0 to 100), Sunflower: 40

## O=C1C(n2ccc(C3CCCCC3)n2)SCN1c1cccc(C(F)(F)F)c1 (stereo not shown) [Compound 52]
[13]
  Plant response rating, Barnyardgrass: 100
[14]
  Plant response rating, Ducksalad: 100
Rice (Oryza saliva) [15]
  Plant response rating, Rice: 50
[16]
  Plant response rating, Flatsedge: 100
Rice (Oryza saliva) [10]; Rate 250 g/ha
  Rice plant response rating: 0
Rice (Oryza saliva) [10]; Rate 500 g/ha
  Rice plant response rating: 60
Rice (Oryza saliva) [10]; Rate 62 g/ha
  Plant response rating, Rice: 0
Rice (Oryza saliva) [10]; Rate 125 g/ha
  Plant response rating, Rice: 0
Sunflower [11]; Rate 250 g/ha
  Plant response rating (0 to 100), Sunflower: 0

## COc1cc(N2CCC(n3ccc(C(C)(C)C)n3)C2=O)ccc1C (stereo not shown) [Compound 42]
[13]
  Plant response rating, Barnyardgrass: 100
[14]
  Plant response rating, Ducksalad: 100
Rice (Oryza saliva) [15]
  Plant response rating, Rice: 100
[16]
  Plant response rating, Flatsedge: 100
Rice (Oryza saliva) [10]; Rate 250 g/ha
  Rice plant response rating: 70
Rice (Oryza saliva) [10]; Rate 500 g/ha
  Rice plant response rating: 80
Rice (Oryza saliva) [10]; Rate 62 g/ha
  Plant response rating, Rice: 20
Rice (Oryza saliva) [10]; Rate 125 g/ha
  Plant response rating, Rice: 40
Rice (Oryza saliva) [10]; [20]
  Plant response rating (scale 0 to 100), Rice: 0
Rice (Oryza saliva) [10]; [21]
  Plant response rating (scale 0 to 100), Rice: 0

## O=C1C(n2ccc(C3CCCCC3)n2)SCN1c1cccc(OC(F)(F)F)c1 (stereo not shown) [Compound 50]
[13]
  Plant response rating, Barnyardgrass: 100
[14]
  Plant response rating, Ducksalad: 100
Rice (Oryza saliva) [15]
  Plant response rating, Rice: 60
[16]
  Plant response rating, Flatsedge: 100
Rice (Oryza saliva) [10]; Rate 250 g/ha
  Rice plant response rating: 0
Rice (Oryza saliva) [10]; Rate 500 g/ha
  Rice plant response rating: 50
Rice (Oryza saliva) [10]; Rate 62 g/ha
  Plant response rating, Rice: 0
Rice (Oryza saliva) [10]; Rate 125 g/ha
  Plant response rating, Rice: 0
Sunflower [11]; Rate 250 g/ha
  Plant response rating (0 to 100), Sunflower: 30

## O=C1C(n2ccc(C3CCCCC3)n2)OCN1c1cccc(C(F)(F)F)c1 (stereo not shown) [Compound 51]
[13]
  Plant response rating, Barnyardgrass: 100
[14]
  Plant response rating, Ducksalad: 100
Rice (Oryza saliva) [15]
  Plant response rating, Rice: 30
[16]
  Plant response rating, Flatsedge: 100
Rice (Oryza saliva) [10]; Rate 250 g/ha
  Rice plant response rating: 0
Rice (Oryza saliva) [10]; Rate 500 g/ha
  Rice plant response rating: 0
Rice (Oryza saliva) [10]; Rate 62 g/ha
  Plant response rating, Rice: 0
Rice (Oryza saliva) [10]; Rate 125 g/ha
  Plant response rating, Rice: 0
Sunflower [11]; Rate 250 g/ha
  Plant response rating (0 to 100), Sunflower: 30
